The source of these data is patent US9212177B2, “Antiviral compounds and methods of making and using thereof” (Versitech Limited, priority 2009, dated 2015).

Data set [1] relates to Influenza A H1N1\WSN\33. The data set is described as follows: microbe, parasite or virus in culture. The conditions noted are these: for EC50: read-out: EC50 by PRA. The format is cell-based, Influenza A virus.
Data set [2] concerns MDCK cells. The data set is described as follows: MTT cytotoxicity assay in MDCK cells. Format: cell-based, canine. The conditions noted are these: 24 hours incubation, concentrations tested 0 to 250 μM, read-out: TC50 in MDCK cells. The protocol: (§1) Cytotoxicity of Compounds 1-10 was measured by the 3-(4,5-dimethylthiazol-2-yl)-2,5-diphenyltetrazolium bromide (MTT, Sigma-Aldrich, USA) assay. The assay was performed by seeding Vero cells or MDCK cells at 20,000 cells/well in a total volume of 100 μl EMEM with 10% FBS in flat bottomed 96-well microtitre plates. After 24 hours of incubation, cells were washed twice with PBS and then replenished with fresh EMEM before the addition of the compounds. After the addition of the compounds, the cells were further incubated at 37° C. with 5% CO2 for 24 hours. MTT was added to each well to a final concentration of 0.5 mg/ml. The plates were further incubated at 37° C. with 5% CO2 for 4 hours. At the end of the incubation period, 100 μl of 10% of lauryl sulfate (SDS) in 0.01M of hydrochloric acid (HCl) was added to each well to solubilize the cells. After overnight incubation, the plates were read at 570 nm with 640 nm as the reference wavelength. The median toxic concentration, TC50, which represents the concentration of a compound required to reduce the MTT reading by 50%, was estimated from the MTT data.
For orientation: Tetrazolium dyes change colour on reduction, which living cells bring about.

For data set [3], the system named is Vero cells. Put plainly: MTT cytotoxicity assay in Vero cells. The format is cell-based. The conditions noted are these: 24 hours incubation, concentrations tested 0 to 250 μM, read-out: TC50 in Vero cells. The protocol: as §1
Data set [4] is described as follows: MTT cytotoxicity assay in MDCK cells. Format: cell-based, canine. The conditions noted are these: dog, MDCK cells, 24 hours incubation, concentrations tested 0 to 250 μM, read-out: TC50 in MDCK cells. The protocol: as §1
Data set [5] in a line: MTT cytotoxicity assay in Vero cells. Format: cell-based. The note with it: African green monkey, Vero cells, 24 hours incubation, concentrations tested 0 to 250 μM, read-out: TC50 in Vero cells. The protocol: as §1

Where two headings read alike, the source gives them in different places.

A word on the EC50: it is the concentration giving half of the maximal effect.

As to `Cc1onc(-c2ccccc2Cl)c1C(=O)N1CCN(c2ccc([N+](=O)[O-])cc2Cl)CC1` [Compound 5, [4-(2-chloro-4-nitro-pheny1)-piperazin-1-yl]-[3-(2-chloro-phenyl)-5-methylisoxazol-4-yl]-methanone], the EC50 in data set [1] stood at 0.04 µM. Also, the CC50 in data set [2] and in data set [3] was above 250 µM in each case.

For the molecule `Cc1onc(-c2c(Cl)cccc2Cl)c1C(=O)N1CCN(c2ccc([N+](=O)[O-])cc2)CC1` [Compound 9, [4-(4-nitro-phenyl)-piperazin-1-yl]-[3-(2,6-dichloro-phenyl)-5-methyl-isoxazol-4-yl]-methanone], the “Selective Index (SI)” value in data set [1] is recorded as above 21. The EC50 in data set [1] (Influenza A virus, MDCK, 72 h) came to 12 µM. For the same molecule, the CC50 at 24 h in data set [4] and in data set [5] was above 250 µM each time.

`Cc1onc(-c2ccc(N)cc2)c1C(=O)N1CCN(c2ccc([N+](=O)[O-])cc2Cl)CC1` [Compound 3, [4-(2-chloro-4-nitro-phenyl)-piperazin-1-yl]-[3-(4-amino-phenyl)-methylisoxazol-4-yl]-methanone]: in data set [1], the “Selective Index (SI)” value is on record as above 4464. The CC50 at 24 h in data set [4] and in data set [5] was above 250 µM each time.

In the case of `Cc1onc(-c2ccc(N=[N+]=[N-])cc2)c1C(=O)N1CCN(c2ccc([N+](=O)[O-])cc2Cl)CC1` [Compound 4, [4-(2-chloro-4-nitro-pheny1)-piperazin-1-yl]-[3-(4-azido-pheny1)-5-methylisoxazol-4-yl]-methanone], the EC50 in data set [1] was 0.25 µM. For the same molecule, the CC50 in data set [2] and in data set [3] was above 250 µM throughout.

For `Cc1onc(-c2ccccc2Cl)c1C(=O)N1CCN(c2ccc([N+](=O)[O-])cc2)CC1` [Compound 8, [4-(4-nitro-pheny1)-piperazin-1-yl]-[3-(2-chloro-phenyl)-5-methyl-isoxazol-4-yl]-methanone], the EC50 in data set [1] worked out at 5.1 µM. Moreover, the CC50 in data set [2] and in data set [3] was above 250 µM in each case.

On to `Cc1onc(-c2ccccc2)c1C(=O)N1CCN(c2ccc([N+](=O)[O-])cc2Cl)CC1C` (centres unmarked) [Compound 7, [4-(2-chloro-4-nitro-phenyl)-2-methyl-piperazin-1-yl]-[3-phenyl-5-methylisoxazol-4-yl]-methanone], for which the “Selective Index (SI)” value in data set [1] is above 313. Besides, the 50% effective concentration (EC50) in data set [1] (Influenza A virus, MDCK, 72 h) turned out to be 0.8 µM. Besides, the CC50 at 24 h in data set [4] and in data set [5] was above 250 µM each time.

In the case of `Cc1onc(-c2ccccc2)c1C(=O)N1CCN(c2ccc([N+](=O)[O-])cc2Cl)CC1` [Compound 2, [4-(2-chloro-4-nitro-phenyl)-piperazin-1-yl]-[3-phenyl-5-methyl-isoxazol-4-yl]-methanone], the “Selective Index (SI)” value in data set [1] is recorded as above 4167. Further, in data set [1] (Influenza A virus, MDCK, 72 h), the 50% effective concentration (EC50) was 0.06 µM. The CC50 at 24 h in data set [4] and in data set [5] was above 250 µM each time.

For the molecule `Cc1onc(-c2ccc(O)cc2)c1C(=O)N1CCN(c2ccc([N+](=O)[O-])cc2Cl)CC1` [Compound 1, [4-(2-chloro-4-nitro-pheny1)-piperazin-1-yl]-[3-(4-hydroxy-pheny1)-5-methylisoxazol-4-yl]-methanone], the half-maximal effective concentration (EC50) in data set [1] was found to be 0.05 µM. In addition, the CC50 in data set [2] and in data set [3] was above 250 µM throughout.

With `Cc1onc(-c2ccccc2Cl)c1C(=O)N1CCN(c2c(Cl)cccc2[N+](=O)[O-])CC1` [Compound 10, [4-(2-nitro-6-chloro-phenyl)-piperazin-1-yl]-[3-(2-chloro-phenyl)-5-methyl-isoxazol-4-yl]-methanone], the “Selective Index (SI)” value in data set [1] is above 10. Moreover, the EC50 in data set [1] (Influenza A virus, MDCK, 72 h) was 25 µM. In addition, the CC50 at 24 h in data set [4] and in data set [5] was above 250 µM throughout.

Take `Cc1onc(-c2ccccc2Cl)c1C(=O)N1CCN(c2ccc([N+](=O)[O-])cc2Cl)CC1C` (centres unmarked) [Compound 6, [4-(2-chloro-4-nitro-phenyl)-2-methyl-piperazin-1-yl]-[3-(2-chloro-phenyl)-5-methyl-isoxazol-4-yl]-methanone]: in data set [1], the “Selective Index (SI)” value is reported as above 1190. Also, the EC50 in data set [1] (Influenza A virus, MDCK, 72 h) came to 0.21 µM. In addition, the CC50 at 24 h in data set [4] and in data set [5] was above 250 µM throughout.
